In US11015061B2, “Phthalocyanine-based compound and uses of same” (YAMAMOTO CHEMICALS, INC., priority 2017, dated 2021):

Experiments:
Type in all cases: physicochemical
[1] = Tts of laminated glass sample; settings: 0.76 mm PVB interlayer with 0.013 g compound per 100 g resin, JIS R3106
Experimental: (§1) The phthalocyanine-based compound (Specific Example (1)-30) produced in Example 1 (0.013 g) was dissolved in 40 g of triethylene glycol-di-2-ethylhexanoate as an organic ester plasticizer. The obtained solution was added to 100 g of a polyvinyl butyral resin (trade name: BH-3, produced by SEKISUI CHEMICAL CO., LTD.), thoroughly melted and kneaded using a mixing roll, and extruded using an extruder, thereby obtaining an interlayer having a thickness of 0.76 mm.
(§2) The interlayer was cut in size of 100 mm×100 mm, interposed between heat ray absorbing glass plates (100 mm (length)×100 mm (width)×2.0 mm (thickness)) prepared based on JIS R3208, put into a rubber bag, and deaerated for 20 minutes at a degree of vacuum of 2.6 kPa. Then, the deaerated laminate was moved into an oven and further hold for 30 minutes at 90° C. to vacuum press. Thereafter, the laminate was compressed for 20 minutes in an autoclave under the condition of a temperature of 130° C. and a pressure of 1.3 MPa, thereby obtaining a laminated glass sample.
By using U-3500 type recording spectrophotometer produced by Hitachi, Ltd. as a measurement instrument, Tts of the laminated glass samples was measured based on JIS R3106 “Testing method for transmittance, reflectance, emissivity, and solar heat gain coefficient of flat glasses”.

[2] = Solubility in organic solvent (cyclopentanone); settings: about 10 wt % dispersion, room temperature, 0.2 μm filter; no residue = 10 wt % or more
Experimental: The solubility of the phthalocyanine compound with respect to cyclopentanone was measured by the following method.
Cyclopentanone was added to about 1 g of the phthalocyanine compound such that the total weight thereof became about 10 g, and the obtained solution was irradiated with ultrasonic waves for about 30 minutes and then stirred for 2 hours at room temperature, thereby preparing a dispersion liquid of about 10 wt %.
The dispersion liquid was filtered through a membrane filter (0.2 μm), the substance obtained by filtration was dried for 1 hour in a drier at 60° C., and then the weight of the substance obtained by filtration was measured.
The solubility of the phthalocyanine compound in a solvent is expressed by the following equation. Solubility (wt %)=(W0−W1)/W0
W0 represents the correct weight of the phthalocyanine not yet being treated, and W1 represents the weight of the substance obtained by filtration (dissolved phthalocyanine compound residue) having been dried.

[3] = Heat resistance test of laminated glass; settings: 200 hours at 100° C., absorbance integrated 400 to 900 nm
Experimental: as §1, §2
For a heat resistance test, the laminated glass used for measuring the spectrum before test as described above was treated with heat for 200 hours at a temperature of 100° C. in a thermostat (produced by Yamato Scientific co., ltd.: IG400). By using the spectrophotometer, the absorption spectrum of the heat-treated laminated glass was measured and adopted as a spectrum after heat resistance test.
(§3) In each of the spectra measured as above before and after the light fastness⋅heat resistance test, the values of absorbance within a range of 400 to 900 nm were integrated, and a difference between the integrated value before the light fastness⋅heat resistance test and the integrated value after the light fastness⋅heat resistance test was calculated.
(§4) The difference ΔE between the absorbance before the light fastness⋅heat resistance test and the absorbance after the light fastness⋅heat resistance test is expressed by the following equation. ΔE (%)={E(400 to 900 nm in E1)−E(400 to 900 nm in E2)}/E(400 to 900 nm in E1)×100
E1 represents the spectrum before test, E2 represents the spectrum after test, and Σ represents integration of values of absorbance. The larger the value of ΔE, the greater the spectrum change between before and after the light fastness⋅heat resistance test.

[4] = Light fastness test of heat ray shielding film; settings: xenon light 200 hours at 550 W/h, absorbance integrated 400 to 900 nm
Experimental: In the evaluation test, the release film was peeled from the produced heat ray shielding film, then the heat ray shielding film was compressed on a 5 cm×5 cm×3 mm (thickness) glass plate, and a test piece created in this way was used.
For a light fastness test, the absorption spectrum of the test piece was measured using a spectrophotometer (produced by Hitachi, Ltd.: Spectrophotometer U-3500) and adopted as a spectrum before light fastness test. Then, the test piece used for measuring the spectrum before test was irradiated with light for 200 hours at 550 W/h by using a xenon light fastness tester (produced by Toyo Seiki Seisaku-sho, Ltd.: SUNTEST XLS+). The absorption spectrum of the test piece irradiated with light was measured using the spectrophotometer and adopted as a spectrum after light fastness test.
as §3, §4
E1 represents the spectrum before test, E2 represents the spectrum after test, and Σ represents integration of the values of absorbance.
The larger the value of ΔE, the greater the spectrum change between before and after the light fastness⋅heat resistance test.

[5] = Visible light transmittance of laminated glass sample; settings: 380 to 780 nm, JIS R3212
Experimental: as §1, §2
By using U-3500 type recording spectrophotometer produced by Hitachi, Ltd. as a measurement instrument, the visible light transmittance of the laminated glass samples at a wavelength of 380 to 780 nm was measured based on JIS R3212 “Test methods of safety glazing materials for road vehicles”.

COc1cccc(OC)c1OCCCCc1ccc(CCCCOc2c(OC)cccc2OC)c2c1-c1nc-2nc2[n-]c(nc3nc(nc4[n-]c(n1)c1c(CCCCOc5c(OC)cccc5OC)ccc(CCCCOc5c(OC)cccc5OC)c41)-c1c(CCCCOc4c(OC)cccc4OC)ccc(CCCCOc4c(OC)cccc4OC)c1-3)c1c(CCCCOc3c(OC)cccc3OC)ccc(CCCCOc3c(OC)cccc3OC)c21.[O]=[V+2] [Specific Example (1)-44]
Tts [1]: 52.9% | Solubility to cyclopentanone (wt %) [2]: ≥10% wt % | ΔE (%) Heat resistance [3]: 3% | ΔE (%) Light fastness [4]: 3% | Visible light transmittance [5]: 77.9%

[O]=[V+2].c1ccc(OCCCCc2ccc(CCCCOc3ccccc3)c3c2-c2nc-3nc3[n-]c(nc4nc(nc5[n-]c(n2)c2c(CCCCOc6ccccc6)ccc(CCCCOc6ccccc6)c52)-c2c(CCCCOc5ccccc5)ccc(CCCCOc5ccccc5)c2-4)c2c(CCCCOc4ccccc4)ccc(CCCCOc4ccccc4)c32)cc1 [Specific Example (1)-37]
Tts [1]: 52.6% | Solubility to cyclopentanone (wt %) [2]: ≥10% wt % | ΔE (%) Heat resistance [3]: 3% | ΔE (%) Light fastness [4]: 5% | Visible light transmittance [5]: 77.9%

COCCCCc1ccc(CCCCOC)c2c1-c1nc-2nc2[n-]c(nc3nc(nc4[n-]c(n1)c1c(CCCCOC)ccc(CCCCOC)c41)-c1c(CCCCOC)ccc(CCCCOC)c1-3)c1c(CCCCOC)ccc(CCCCOC)c21.[Cu+2] [Specific Example (1)-31]
Tts [1]: 51.5% | Solubility to cyclopentanone (wt %) [2]: ≥10% wt % | ΔE (%) Heat resistance [3]: 2% | ΔE (%) Light fastness [4]: 3% | Visible light transmittance [5]: 77.7%

[O]=[V+2].c1ccc(OCCOCCCCc2ccc(CCCCOCCOc3ccccc3)c3c2-c2nc-3nc3[n-]c(nc4nc(nc5[n-]c(n2)c2c(CCCCOCCOc6ccccc6)ccc(CCCCOCCOc6ccccc6)c52)-c2c(CCCCOCCOc5ccccc5)ccc(CCCCOCCOc5ccccc5)c2-4)c2c(CCCCOCCOc4ccccc4)ccc(CCCCOCCOc4ccccc4)c32)cc1 [Specific Example (1)-38]
Tts [1]: 51.7% | Solubility to cyclopentanone (wt %) [2]: ≥10% wt % | ΔE (%) Heat resistance [3]: 2% | ΔE (%) Light fastness [4]: 5% | Visible light transmittance [5]: 77.8%

COCc1ccc(COC)c2c1-c1nc-2nc2[n-]c(nc3nc(nc4[n-]c(n1)c1c(COC)ccc(COC)c41)-c1c(COC)ccc(COC)c1-3)c1c(COC)ccc(COC)c21.[O]=[V+2] [Comparative Example Compound (a), reference compound]
Tts [1]: 53.6% | Solubility to cyclopentanone (wt %) [2]: ≤1% wt % | ΔE (%) Heat resistance [3]: 35% | ΔE (%) Light fastness [4]: 33% | Visible light transmittance [5]: 75%

COc1cccc(OCCCCc2ccc(CCCCOc3cccc(OC)c3)c3c2-c2nc-3nc3[n-]c(nc4nc(nc5[n-]c(n2)c2c(CCCCOc6cccc(OC)c6)ccc(CCCCOc6cccc(OC)c6)c52)-c2c(CCCCOc5cccc(OC)c5)ccc(CCCCOc5cccc(OC)c5)c2-4)c2c(CCCCOc4cccc(OC)c4)ccc(CCCCOc4cccc(OC)c4)c32)c1.[Cu+2] [Specific Example (1)-40]
Tts [1]: 52% | Solubility to cyclopentanone (wt %) [2]: ≥10% wt % | ΔE (%) Heat resistance [3]: 2% | ΔE (%) Light fastness [4]: 2% | Visible light transmittance [5]: 77.9%

CC(C)(C)c1ccc(OCCCCc2ccc(CCCCOc3ccc(C(C)(C)C)cc3)c3c2-c2nc-3nc3[n-]c(nc4nc(nc5[n-]c(n2)c2c(CCCCOc6ccc(C(C)(C)C)cc6)ccc(CCCCOc6ccc(C(C)(C)C)cc6)c52)-c2c(CCCCOc5ccc(C(C)(C)C)cc5)ccc(CCCCOc5ccc(C(C)(C)C)cc5)c2-4)c2c(CCCCOc4ccc(C(C)(C)C)cc4)ccc(CCCCOc4ccc(C(C)(C)C)cc4)c32)cc1.[O]=[V+2] [Specific Example (1)-42]
Tts [1]: 52.3% | Solubility to cyclopentanone (wt %) [2]: ≥10% wt % | ΔE (%) Heat resistance [3]: 3% | ΔE (%) Light fastness [4]: 4% | Visible light transmittance [5]: 77.7%

Fc1ccccc1OCCCCc1ccc(CCCCOc2ccccc2F)c2c1-c1nc-2nc2[n-]c(nc3nc(nc4[n-]c(n1)c1c(CCCCOc5ccccc5F)ccc(CCCCOc5ccccc5F)c41)-c1c(CCCCOc4ccccc4F)ccc(CCCCOc4ccccc4F)c1-3)c1c(CCCCOc3ccccc3F)ccc(CCCCOc3ccccc3F)c21.[O]=[V+2] [Specific Example (1)-43]
Tts [1]: 52% | Solubility to cyclopentanone (wt %) [2]: ≥10% wt % | ΔE (%) Heat resistance [3]: 4% | ΔE (%) Light fastness [4]: 2% | Visible light transmittance [5]: 77.6%

COc1cccc(OC)c1OCCCCc1ccc(CCCCOc2c(OC)cccc2OC)c2c1-c1nc-2nc2[n-]c(nc3nc(nc4[n-]c(n1)c1c(CCCCOc5c(OC)cccc5OC)ccc(CCCCOc5c(OC)cccc5OC)c41)-c1c(CCCCOc4c(OC)cccc4OC)ccc(CCCCOc4c(OC)cccc4OC)c1-3)c1c(CCCCOc3c(OC)cccc3OC)ccc(CCCCOc3c(OC)cccc3OC)c21.[Cu+2] [Specific Example (1)-45]
Tts [1]: 52.5% | Solubility to cyclopentanone (wt %) [2]: ≥10% wt % | ΔE (%) Heat resistance [3]: 4% | ΔE (%) Light fastness [4]: 2% | Visible light transmittance [5]: 77.4%

CCOCCCCc1ccc(CCCCOCC)c2c1-c1nc-2nc2[n-]c(nc3nc(nc4[n-]c(n1)c1c(CCCCOCC)ccc(CCCCOCC)c41)-c1c(CCCCOCC)ccc(CCCCOCC)c1-3)c1c(CCCCOCC)ccc(CCCCOCC)c21.[O]=[V+2] [Specific Example (1)-33]
Tts [1]: 51.5% | Solubility to cyclopentanone (wt %) [2]: ≥10% wt % | ΔE (%) Heat resistance [3]: 3% | ΔE (%) Light fastness [4]: 3% | Visible light transmittance [5]: 77.5%

COCCCCc1ccc(CCCCOC)c2c1-c1nc-2nc2[n-]c(nc3nc(nc4[n-]c(n1)c1c(CCCCOC)ccc(CCCCOC)c41)-c1c(CCCCOC)ccc(CCCCOC)c1-3)c1c(CCCCOC)ccc(CCCCOC)c21.[O]=[V+2] [Specific Example (1)-30]
Tts [1]: 53.2% | Solubility to cyclopentanone (wt %) [2]: ≥10% wt % | ΔE (%) Heat resistance [3]: 6% | ΔE (%) Light fastness [4]: 5% | Visible light transmittance [5]: 78.1%

COc1cccc(OCCCCc2ccc(CCCCOc3cccc(OC)c3)c3c2-c2nc-3nc3[n-]c(nc4nc(nc5[n-]c(n2)c2c(CCCCOc6cccc(OC)c6)ccc(CCCCOc6cccc(OC)c6)c52)-c2c(CCCCOc5cccc(OC)c5)ccc(CCCCOc5cccc(OC)c5)c2-4)c2c(CCCCOc4cccc(OC)c4)ccc(CCCCOc4cccc(OC)c4)c32)c1.[O]=[V+2] [Specific Example (1)-39]
Tts [1]: 52.7% | Solubility to cyclopentanone (wt %) [2]: ≥10% wt % | ΔE (%) Heat resistance [3]: 3% | ΔE (%) Light fastness [4]: 4% | Visible light transmittance [5]: 78%
